“Also recorded” adds a separate entry of the source. Like-named read-outs stand apart in the source and are kept apart here.
Legend:
Type in all cases: cell-based, rat
[1] = tested on: cultured hippocampal neurons; assay: calcium ionophore A23187 neurotoxicity; settings: 100 nM, 1 h pretreatment
Source text: (§1) Dissociated embryonic rat hippocampal cell cultures were established and maintained. All procedures conformed with the NIH Guide for the Care and Use of Laboratory Animals and were approved by the University of Kentucky Animal Care and Use Committee. Cultures were maintained on a polyethyleneimine-coated substrate in plastic 35-mm dishes or 96 wall plates (for cell survival studies) or glass-bottom 35-mm dishes (for [Ca^2+ ]i imaging studies). The cell density was ^~ 70-100 cells/mm^2. Cells were maintained in Eagle's minimum essential medium supplemented 10% with fetal bovine serum and containing 20 mM sodium pyruvate. […] Aβ25-35 (Bachem, lot ZJ744) and Aβ1-40 (Bachem, lot ZK600) were stored in the lyophilized form, and stocks were prepared immediately before use by dissolving the peptide at a concentration of 1 mM in sterile distilled water. […] Glutamate and colchicine (Sigma) were prepared as 200-500x stocks in saline. Cytochalasins D and E (Sigma) and calcium ionophore 4-bromo-A23187 (Calbiochem) were prepared as 500x stocks in dimethyl sulfoxide. Vitamin E (α-tocopherol; Sigma) was prepared as a 500x stock in ethanol. Nordihydroguaiaretic acid and FeSo4 were prepared as 500x stocks in sterile water.
(§2) Neuronal survival was quantified by counting viable neurons in the same microscope fields (10x objective) immediately before experimental treatment and at time points after treatment. In addition, cells were grown in 96-well plates and Alamar blue fluorescence (Alamar Laboratories)was quantified by using a fluorescence plate reader. Alamar Blue is a non-fluorescent substrate that, after reduction by cell metabolites, becomes fluorescent. […] Viability of the remaining neurons was assessed by morphological criteria. […] Survival values were expressed as percentages of the initial number of neurons present before experimental treatment. […]
FIG. 7. Cultures were pretreated for 1 h with 0.2% dimethylsulfoxide (control) or 100 nM cytochalasin D. Calcium ionophore A23187 was then added at the indicated concentrations and neuronal survival was assessed 8 h later. […]

[2] = tested on: cultured hippocampal neurons; assay: cells; settings: for viability at 0.1 µM: Rattus norvegicus, Hippocampal neuron
Source text: as §1
Neuronal survival was quantified by counting viable neurons in the same microscope fields (10x objective) immediately before experimental treatment and at time points after treatment. In addition, cells were grown in 96-well plates and Alamar blue fluorescence (Alamar Laboratories)was quantified by using a fluorescence plate reader. Alamar Blue is a non-fluorescent substrate that, after reduction by cell metabolites, becomes fluorescent. Usually neurons that died in the time intervals (20-48 h) between examination points were absent. Viability of the remaining neurons was assessed by morphological criteria. Neutrons with intact neurites of uniform diameter and a soma with a smooth, round appearance were considered viable, whereas neurons with fragmented neurites and a vacuolated or swollen soma were considered nonviable. Survival values were expressed as percentages of the initial number of neurons present before experimental treatment. Statistical comparisons were made using ANOVA and Scheffe post-hoc tests for pairwise comparisons.
Values represent the means and SEM of 4 separate cultures (cell counts) or 4 culture wells (Alamar blue assay). ^a p<0.05 compared to control value. ^b p<0.001 compound to control value. ^c p<0.01 compared to value for glutamate-treated cultures. ^d p<0.005 compared to value for glutamate-treated cultures. ^e p<0.001 compared to value for Aβ-treated cultures. ^f p<0.001 compared to value for cultures treated with 20 μM glutamate. ^g p<0.001 compared to cultures treated with 50 μM Aβ+20 μM glutamate. n.d. not determined.

[3] = tested on: growth cone motility of hippocampal neurons; assay: growth cone motility
[4] = tested on: cultured hippocampal neurons; assay: neurotoxicity of combined exposure to Aβ and glutamate; settings: 100 nM; 50 μM Aβ plus 20 μM glutamate, 48 h
Source text: Dissociated embryonic rat hippocampal cell cultures were established and maintained. All procedures conformed with the NIH Guide for the Care and Use of Laboratory Animals and were approved by the University of Kentucky Animal Care and Use Committee. Cultures were maintained on a polyethyleneimine-coated substrate in plastic 35-mm dishes or 96 wall plates (for cell survival studies) or glass-bottom 35-mm dishes (for [Ca^2+ ]i imaging studies). The cell density was ^~ 70-100 cells/mm^2. Cells were maintained in Eagle's minimum essential medium supplemented 10% with fetal bovine serum and containing 20 mM sodium pyruvate. […]
as §2, with “reader.” for “reader. Alamar Blue is a non-fluorescent substrate that, after reduction by cell metabolites, becomes fluorescent.”
FIG. 13. […] Neuronal survival was assessed 48 h after treatment. […]

[5] = tested on: actin filaments in cultured hippocampal neurons; assay: phalloidin fluorescence of actin filaments, neurons
Experimental: Hippocampal cells were exposed to cytochalasin D and then fixed for 30 min in 4% paraformaldehyde/phosphate-buffered saline. Cell membranes were permeabilized by incubating for 5 min in a solution of 0.2% Triton X-100 in phosphate-buffered saline. Cells were then incubated for 30 min in PBS containing 0.005 U/ml fluorescein-phalloidin (Molecular Probes). Cells were rinsed in water and mounted in Vectashield antifade solution (Vector Laboratories) . Fluorescence images were acquired using a Sarastro 2000 confocal laser scanning microscope with a 60x oil-immersion objective. All images were acquired using identical settings for excitation intensity and detector gain.
FIG. 4. (A) Micrographs are confocal laser scanning microscope images of cultured hippocampal cells stained with fluorescein-labeled phalloidin. Cells were exposed for 3 h to either vehicle (control; left) or 100 nM cytochalasin D (right) prior to staining with phalloidin. The top micrographs show several neurons (arrowheads point to neuronal cell bodies); note reduction in phalloidin fluorescence in cytochalasin-treatedneurons.
(B) Cytochalasin D and glutamate cause a reduction in neuronal phalloidin fluorescence. […] Values represent the mean fluorescence intensity per neuronal cell body (±SEM; n=15-18). […]

[6] = 100 μM Glutamate + 10 nM substance
[7] = 100 μM Glutamate + 100 nM substance

## C=C1[C@@H](C)[C@H]2[C@H](Cc3ccccc3)NC(=O)[C@]23[C@H](OC(C)=O)/C=C/[C@@](C)(O)C(=O)[C@@H](C)C/C=C/[C@H]3[C@@H]1O [Cytochalasin D, cytochalasin D]
[1]
  protection against A23187 neurotoxicity: essentially identical to that in control cultures
[2]; 10 nM, alone
  Neuron Survival (% of control), Alamar Blue Assay: 97 ± 7.8 % of control
  Neuron Survival (% of control), Cell Counts: 89 ± 2.4 % of control
[2]; 100 nM, alone
  Neuron Survival (% of control), Alamar Blue Assay: 91 ± 5.9 % of control
  Neuron Survival (% of control), Cell Counts: 87 ± 2.2 % of control
[2]; 50 μM Aβ + 10 nM substance
  Neuron Survival (% of control), Alamar Blue Assay: 55 ± 2.5 % of control
[2]; 50 μM Aβ + 100 nM substance
  Neuron Survival (% of control), Alamar Blue Assay: 74 ± 1.3 % of control
[2]; 50 μM Aβ + 20 μM Glut with 100 nM substance
  Neuron Survival (% of control), Alamar Blue Assay: 63 ± 2.5 % of control
[2]; [6]
  Neuron Survival (% of control), Alamar Blue Assay: 43 ± 6.7 % of control
  Neuron Survival (% of control), Cell Counts: 54 ± 7.4 % of control
[2]; [7]
  Neuron Survival (% of control), Alamar Blue Assay: 42 ± 4.2 % of control
  Neuron Survival (% of control), Cell Counts: 45 ± 9.8 % of control
[2]; 1-100 nM, alone
  effect on neuronal survival, alone: no significant effect on neuronal survival
[3]
  growth cone motility: inhibit growth cone motility
[4]
  effect on neurotoxicity of combined Aβ and glutamate: attenuated significantly
[5]; 100 nM, 1 h
  phalloidin staining in neurons: pronounced reduction in phalloidin staining in neurons; also recorded: loss of fluorescence
[5]; 10-1000 nM, 3 h
  phalloidin staining in neurons: concentration-dependent reduction in phalloidin staining in neurons

## COc1cc2c(c(OC)c1OC)-c1ccc(OC)c(=O)cc1[C@@H](NC(C)=O)CC2 [Colchicine, colchicine, reference compound]
[2]; 100 nM, alone
  effect on neuronal survival, alone: reduced survival
[2]; 100 nM, alone, read-out: Neuron Survival (% of control), Alamar Blue Assay
  viability at 0.1 µM: 40 ± 5.2%
[2]; 50 μM Aβ + 100 nM substance, read-out: Neuron Survival (% of control), Alamar Blue Assay
  viability at 0.1 µM: 23 ± 2.8%
[2]; 100 μM Glutamate + 100 nM substance, read-out: Neuron Survival (% of control), Alamar Blue Assay
  viability at 0.1 µM: 12 ± 2.2%
[2]; read-out: Neuron Survival (% of control), Cell Counts, 100 nM, alone
  viability at 0.1 µM: 85 ± 1.9%

Source: patent publication US5830910A (priority 1995, dated 1998)
